Assays:
BTK = BTK (Homo sapiens, UniProt Q06187); design: BTK kinase domain was expressed and purified as previously reported; made in house; method as in Reddi et al., J. Am. Chem. Soc. 2021, 143 (13), 4979–4992; conditions: ref Reddi et al., J. Am. Chem. Soc. 2021, 143 (13), 4979–4992; cited from earlier work
BTK-1h = biological target: T1, BTK-1h (Homo sapiens, UniProt Q06187); test: High-throughput screening with 1h-labeled BTK; format: binding
T1 construct: The BTK kinase domain was diluted to 2 μM in the buffer, and 2 μM 1h was added; made in house
T1 sequence (Q06187 402-655): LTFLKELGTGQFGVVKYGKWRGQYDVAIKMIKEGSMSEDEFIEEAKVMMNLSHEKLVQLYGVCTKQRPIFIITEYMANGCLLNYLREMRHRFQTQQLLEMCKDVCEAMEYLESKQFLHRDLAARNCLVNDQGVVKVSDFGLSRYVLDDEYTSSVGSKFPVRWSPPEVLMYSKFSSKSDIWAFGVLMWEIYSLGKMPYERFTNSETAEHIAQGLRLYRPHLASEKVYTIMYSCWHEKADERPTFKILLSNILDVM
Description: The collection was composed of BTK binding compounds obtained in our previous luminescence screen[37] (Data set S2). […] The resulting BTK-1h (50 μL) was added to the inhibitors.

[1] = Dataset S2A, 200 μM compound, BTK-1h, 32 °C, 10 min

Sequence of BTK (Q06187 402-655 limits assumed): as the sequence (Q06187 402-655) above

Compound | FI (650)/FI (620) (BTK-1h; [1]) | FI (BTK-1h)/FI (BTK-1h+Inhibitor) at 620 nm (BTK-1h; [1]) | FI (BTK-1h)/FI (BTK-1h+Inhibitor) at 620 nm (BTK-1h; Dataset S2B, 200 μM inhibitor added to BTK-1h (2 μm)) | BTK Inhibition reported in luminescence assay* (BTK) | FI (650)/FI (620) (BTK-1h; Dataset S2C, BTK-1h with inhibitor)
CCCCc1oc2ccccc2c1C(=O)c1cc(I)c(OCCN(CC)CC)c(I)c1.Cl [PCM-0064561-003] | 1.028 | 1.018 | – | 75.5 | –
O=c1cc(-c2ccc(O)cc2)oc2cc(O)cc(O)c12 [PCM-0064643-001] | 0.8396 | 1.036 | – | 63.8 | –
N#CC(C#N)=Cc1ccc(O)c(O)c1 [PCM-0064867-001] | 0.9306 | 1.013 | – | 54.5 | –
CC(C)(C)c1cc(/C=C(\C#N)C(N)=S)cc(C(C)(C)C)c1O [PCM-0064936-001] | 0.9335 | 1.037 | – | 82.8 | –
COCCOC(=O)C1=C(C)NC(C)=C(C(=O)OC/C=C/c2ccccc2)C1c1cccc([N+](=O)[O-])c1 (centres unmarked) [PCM-0065102-001] | 0.8604 | 1.035 | – | 59.9 | –
Cl.Cl.Fc1ccc(C(c2ccc(F)cc2)N2CCN(C/C=C/c3ccccc3)CC2)cc1 [PCM-0065210-003] | 0.8526 | 1.036 | – | 87.2 | –
Cl.O=C(c1ccc(OCCN2CCCCC2)cc1)c1c(-c2ccc(O)cc2)sc2cc(O)ccc12 [PCM-0065394-003] | 1.378 | 1.018 | – | 85.5 | –
Cl.Cl.O=C1c2c(O)ccc(O)c2C(=O)c2c(NCCNCCO)ccc(NCCNCCO)c21 [PCM-0065547-003] | 1.449 | 1.019 | – | 51 | –
Cl.O=C1Cc2cc(CCN3CCN(c4nsc5ccccc45)CC3)c(Cl)cc2N1 [PCM-0065598-003] | 1.0625 | 1.055 | – | 52.1 | –
C[n+]1cc2c3c(ccc2c2ccc4cc5c(cc4c21)OCO5)OCO3.[Cl-] [PCM-0065605-002] | 1.399 | 1.003 | – | 75.7 | –
CN(Cc1ccc(C(C)(C)C)cc1)Cc1cccc2ccccc12.Cl [PCM-0086068-001] | 0.9972 | 1.029 | – | 62.3 | –
O=C(O)c1cc(O)c2c(c1)[C@@H]([C@H]1c3cc(C(=O)O)cc(O)c3C(=O)c3c(O[C@@H]4O[C@H](CO)[C@@H](O)[C@H](O)[C@H]4O)cccc31)c1cccc(O[C@@H]3O[C@H](CO)[C@@H](O)[C@H](O)[C@H]3O)c1C2=O [PCM-0086913-003, Sennoside B] | – | 1.82 | – | 84.1 | 1.82

Continued, in another order:

FI (650)/FI (620) (BTK-1h; [1]) | FI (BTK-1h)/FI (BTK-1h+Inhibitor) at 620 nm (BTK-1h; [1]) | FI (BTK-1h)/FI (BTK-1h+Inhibitor) at 620 nm (BTK-1h; Dataset S2B, 200 μM inhibitor added to BTK-1h (2 μm)) | Compound | BTK Inhibition reported in luminescence assay* (BTK) | FI (650)/FI (620) (BTK-1h; Dataset S2C, BTK-1h with inhibitor)
2.125 | 1.0702 | – | O=c1cc(-c2ccc(O)c(O)c2)oc2cc(O)cc(O)c12 [PCM-0086559-001] | 84.8 | –
0.933 | 1.031 | – | O=c1c(O)c(-c2ccc(O)cc2)oc2cc(O)cc(O)c12 [PCM-0087037-002] | 67.7 | –
1.357 | 1.072 | – | COC(=O)C1=C(C)NC(C)=C(C(=O)OCCN2CCN(C(c3ccccc3)c3ccccc3)CC2)C1c1cccc([N+](=O)[O-])c1.Cl.Cl (centres unmarked) [PCM-0090281-005] | 101.2 | –
0.8568 | 1.076 | – | CCOc1nc2cccc(C(=O)OC(C)OC(=O)OC3CCCCC3)c2n1Cc1ccc(-c2ccccc2-c2nn[nH]n2)cc1 (centres unmarked) [PCM-0090385-001] | 53.7 | –
– | 2.544 | 4.404 | CC#CC(=O)N1CC[C@@H](n2c(=O)n(-c3ccc(Oc4ccccc4)cc3)c3c(N)ncnc32)C1 [PCM-0215519-001, ONO-4059] | – | –

Reference: article PMC8662641, “Site-Specific Labeling of Endogenous Proteins Using CoLDR Chemistry” (Journal of the American Chemical Society, 2021)
